Key:
[1] = molecular target: T1, Group IVA cPLA2 (GIVA PLA2) (Homo sapiens, UniProt P47712); test: In vitro Group IVA cPLA2 mixed micelle assay; assay type: biochemical
T1 sequence (P47712 1-749): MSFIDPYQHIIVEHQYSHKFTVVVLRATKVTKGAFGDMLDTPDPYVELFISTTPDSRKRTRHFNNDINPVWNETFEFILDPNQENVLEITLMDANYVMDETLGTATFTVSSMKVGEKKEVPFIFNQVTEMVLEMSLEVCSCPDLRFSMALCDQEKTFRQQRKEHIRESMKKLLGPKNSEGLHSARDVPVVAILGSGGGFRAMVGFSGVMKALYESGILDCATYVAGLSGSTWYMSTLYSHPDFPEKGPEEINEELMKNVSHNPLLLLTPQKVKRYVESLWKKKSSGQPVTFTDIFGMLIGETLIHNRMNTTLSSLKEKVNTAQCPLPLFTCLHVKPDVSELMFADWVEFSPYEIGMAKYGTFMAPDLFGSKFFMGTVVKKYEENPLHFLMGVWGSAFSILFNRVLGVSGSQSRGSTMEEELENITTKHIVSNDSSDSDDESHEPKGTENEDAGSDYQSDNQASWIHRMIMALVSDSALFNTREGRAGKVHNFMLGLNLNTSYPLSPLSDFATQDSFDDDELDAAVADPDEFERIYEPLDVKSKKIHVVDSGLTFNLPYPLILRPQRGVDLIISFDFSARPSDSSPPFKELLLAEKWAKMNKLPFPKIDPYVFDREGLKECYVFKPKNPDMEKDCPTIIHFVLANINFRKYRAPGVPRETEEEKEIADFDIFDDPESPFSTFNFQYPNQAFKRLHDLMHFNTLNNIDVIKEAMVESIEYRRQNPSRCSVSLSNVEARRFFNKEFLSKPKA

spinal release of PGE2 = test: Intrathecal dialysis and PGE2 assay; assay type: in vivo, rat; settings: 3 mg/kg IP pretreatment
From the text: For spinal drug injections, lumbar catheters were implanted in rats under isoflurane anesthesia according to a modification of the procedure described by Yaksh (Yaksh and Rudy, supra, 1976). A polyethylene catheter (PE-5; Spectranetics, 0.014 in OD) was inserted into the intrathecal space and advanced to the rostral edge of the lumbar enlargement through an incision in the atlanto-occipital membrane. Five days after implantation rats were entered into the study. In separate experiments to assess spinal prostaglandins release, rats were prepared with lumbar loop dialysis catheters with three lumens, as previously described, see (Yaksh, et al., supra, 2001).
In brief, the outer two lumens were connected to a length of dialysis tubing (10 Kda cut off). The catheter was then implanted intrathecally using the same technique as described above for the intrathecal catheter. A three-day interval was allowed to elapse prior to including the animal in a study. In all cases, the exclusion criteria were i) presence of any neurological sequelae, ii) 20% weight loss after implantation, or iii) catheter occlusion.
Spinal dialysis experiments to define the spinal release of PGE2 were conducted in unanesthetized rats 3 days after dialysis catheter implantation. A syringe pump (Harvard, Natick, Mass.) was connected and dialysis tubing was perfused with artificial cerebro spinal fluid (ACSF) at a rate of 10 μl/min. The ACSF contained (mM) 151.1 Na^+, 2.6 K^+, 0.9 Mg^2+, 1.3 Ca^2+, 122.7 Cl^−, 21.0 HCO3, 2.5 HPO4 and 3.5 dextrose and was bubbled with 95% O2/5% CO2 before each experiment to adjust the final pH to 7.2. The efflux (20 min per fraction) was collected in an automatic fraction collector (Eicom, Kyoto, Japan) at 4° C. […] The concentration of PGE2 in spinal dialysate was measured by ELISA using a commercially available kit (Assay Designs 90001, Assay Designs, Ann Arbor, Mich.). The antibody is selective for PGE2 with less than 2.0% cross-reactivity to PGF1, PGF2, 6-ketoPGF1, PGA2 or PGB2, but cross-reacts with PGE1 and PGE3.

Row | Structure (SMILES) | inhibition of GIVA PLA2 (cPLA2), in words [1] | Group IVA XI(50), class ([1]; at 0.091 mole fraction) | Inhibition of GIVA PLA2 ([1]; at highest dose) | IT SP-evoked release of PGE2 in spinal dialysate (spinal release of PGE2) | Group IVA XI(50) (mole fraction) ([1]; Table 1b)
1 | CCC(=O)C(=O)NCCCC(=O)OC [AX010] | does not significantly inhibit GIVA PLA2 | N.D. (25% inhibition or less at 0.091 mole fraction) | ND (negligible inhibition (0-25%) at highest dose) | significant increase as compared to vehicle only | 
2 | CCCCCCCCCCCCCCC(=O)C(=O)NCCCC(=O)OCC [AX048, Ethyl 4-[(2-oxohexadecanoyl)amino]butanoate] |  |  |  | significant inhibitory effect upon PGE2 synthesis and release | 0.022 ± 0.009 mole fraction

From US20080319065A1, “Systemic and Intrathecal Effects of a Novel Series of Phospholipase A2 Inhibitors on Hyperalgesia and Spinal Pge2 Release” (The Regents of the University of California, priority 2005, published 2008)
